No end group written: not given here.
What was measured:
NOD mice = details: subcutaneous administration; cited from earlier work
BB-DP rats = assay: Diabetes incidence and onset after neonatal oral DiaPep277 with conventional or HC diet; type: in vivo, rat
Procedure: Experimental set-up: Group-housed BB-DP rats (breeding colony, Groningen, the Netherlands) were orally inoculated once per day with either placebo (aqua dist.) or Diapep277 at days 4, 5, 6 and 7 of life (black box in FIG. 1). Animals were treated in compliance with the principles of laboratory care (NIH publication no. 85-23, revised 1985) and the Dutch law on experimental animal care. Inoculation was done via a silicon-tube swallowed by the neonate and fluid was inoculated directly into the stomach. DiaPep277 was supplied by Peptor Ltd., Rehovot, Israel. It is an analog of the native 437-460 sequence of human hsp60, in which the existing cystein residues at positions 442 and 447 were replaced by valine, for better chemical stabilization. Per inoculation 300 μg/rat of Diapep277 in a volume of 300 μl was administered. At the age of 21 days (gray box in FIG. 1) rats were weaned either on a conventional, cereal-based diet (Hope Farms, rodent diet no. Rmh-B2181, Woerden, Netherlands) or on HC-diet, a modification of the AIN-93G diet containing 20% hydrolyzed casein (Pancase S; Redstar Bioproducts, Tara, Canada) as the source of aminoacids, 53% corn starch, 12% sucrose, 5% corn oil, 5% cellulose-type fiber (Solka-Floc; Teklad, Madison, Wis.) (Visser J. et al., 2003, Metabolism 52, 333-337, Scott F W et al., 1997, Diabetes 46, 589-598). In this study both sexes were used. In our colony 80% to 90% of the BB-DP rats spontaneously develop diabetes before the age of 130 days, with no gender differences. Body weights were measured three times per week. […] The degree of islet infiltration was measured using a Zeiss microscope and was rated as previously described (Visser J. et al., 2003, Metabolism 52, 333-337) with the addition of score 5 which is developed in our lab, to control for completely destroyed islets in severe insulitis. Per pancreas section, an average histological insulitis score was calculated by adding up the score of each islet and dividing it by the total number of islets counted. […]

[1] = tested on: spleen-derived lymphocytes; details: splenocytes from DiaPep277-treated rats; stimulation 5 or 25 microgram/ml; planned second study
Procedure: In this study, the preventive dose or control (PBS) is administered on days 4-14 to large groups of rats (30 per treatment arm), and followed up for signs of diabetes, as above. In addition, five rats of each group are sacrificed at 2 weeks, 1, 2, 3, 4 and 5 months of age, and at each time point the spleen is removed to determine the cytokine profile. Determination of the cytokine profile is performed by subjecting the spleen-derived lymphocytes to the following stimuli: None; Concanavalin A (1 microgram/ml); DiaPep277 (5 microgram/ml); DiaPep277 (25 microgram/ml).

Sequence	development of diabetes (in words) (NOD mice)	diabetes incidence (BB-DP rats; BB-DP rats, oral 300 μg/rat/day at days 4-7 of life, diet from weaning (day 21), followed to 140 days)	improved chance of not developing diabetes (BB-DP rats; all animals receiving DiaPep277, endpoint analysis, χ^2)	protection against diabetes (in words) (BB-DP rats; neonatal oral administration alone, conventional diet)	cytokine response of splenocytes on DiaPep277 stimulation (in words) [1]
VLGGGCALLRCIPALDSLTPANED (cysteine pairing not given here) [p277, residues 437-460 of human Hsp60]	prevented the development of diabetes				
VLGGGVALLRVIPALDSLTPANED [DiaPep277]		69%	2.2 fold	did not lead to significant protection	focused Th2/Treg response
